Assay results as given in patent US10836725B2, “Modulators of the integrated stress pathway” (Calico Life Sciences LLC, priority 2016, dated 2020).
pEC50: −log10 of the molar value.

system: ATF4 luciferase reporter; assay: ATF4-Luc assay in HEK293T cells carrying the ATF4 luciferase reporter (in vitro model of VWMD); format: cell-based, human; details: Homo sapiens, HEK-293T, 1 μg/mL tunicamycin, 7 hours, luminescence (One Glo)
Procedure: In order to test exemplary compounds of the invention in a cellular context, a stable VWMD cell line was first constructed. The ATF4 reporter was prepared by fusing the human full-length ATF4 5′-UTR (NCBI Accession No. BC022088.2) in front of the firefly luciferase (FLuc) coding sequence lacking the initiator methionine as described in Sidrauski et al (eLife 2013). The construct was used to produce recombinant retroviruses using standard methods and the resulting viral supernatant was used to transduce HEK293T cells, which were then subsequently selected with puromycin to generate a stable cell line.
HEK293T cells carrying the ATF4 luciferase reporter were plated on polylysine coated 384-well plates (Greiner Bio-one) at 30,000 cells per well. Cells were treated the next day with 1 μg/mL tunicamycin and 200 nM of a compound of Formula (I) for 7 hours. Luminescence was measured using One Glo (Promega) as specified by the manufacturer. Cells were maintained in DMEM with L-glutamine supplemented with 10% heat-inactivated FBS (Gibco) and Antibiotic-Antimycotic solution (Gibco).
Table 2 below summarizes the EC50 data obtained using the ATF4-Luc assay for exemplary compounds of the invention.

`Cc1cccc([C@@H](C)NC(=O)C23CC(NC(=O)COc4ccc(Cl)c(F)c4)(C2)C3)c1` [Compound 189, 3-[2-(4-chloro-3-fluorophenoxy)acetamido]-N-[(1R)-1-(3-methylphenyl)ethyl]bicyclo[1.1.1]pentane-1-carboxamide] and `CC(NC(=O)C12CC(NC(=O)COc3ccc(Cl)c(F)c3)(C1)C2)c1ccccc1` (centres unmarked) [Compound 172, 3-[2-(4-chloro-3-fluorophenoxy)acetamido]-N-(1-phenylethyl)bicyclo[1.1.1]pentane-1-carboxamide] cannot be ordered by pEC50: < 5.70 for the first, < 5.70 for the second.

First: O=C(COc1ccc(Cl)c(F)c1)NC12CC(C(=O)NCc3ccc(OC(F)F)cc3)(C1)C2 [Compound 169, 3-[2-(4-chloro-3-fluorophenoxy)acetamido]-N-{[4-(difluoromethoxy)phenyl]methyl}bicyclo[1.1.1]pentane-1-carboxamide]
Second: CC(C)Oc1ccc(CNC(=O)C23CC(NC(=O)COc4ccc(Cl)c(F)c4)(C2)C3)cc1 [Compound 207]
The pEC50 of the first is higher: 6.00 to 6.30 for the first, < 5.70 for the second. The first is the more potent here.

`O=C(COc1ccc(Cl)c(F)c1)NC12CC(C(=O)NCc3ccccn3)(C1)C2` [Compound 224, 3-[2-(4-chloro-3-fluorophenoxy)acetamido]-N-[(pyridin-2-yl)methyl]bicyclo[1.1.1]pentane-1-carboxamide] and `O=C(COc1ccc(Cl)c(F)c1)NC12CC(C(=O)NCc3nccs3)(C1)C2` [Compound 208, 3-[2-(4-chloro-3-fluorophenoxy)acetamido]-N-[(1,3-thiazol-2-yl)methyl]bicyclo[1.1.1]pentane-1-carboxamide] cannot be ordered by pEC50: < 5.70 for the first, < 5.70 for the second.

`COc1cccc(CNC(=O)C23CC(NC(=O)COc4ccc(Cl)c(F)c4)(C2)C3)n1` [Compound 232, 3-[2-(4-chloro-3-fluorophenoxy)acetamido]-N-[(6-methoxypyridin-2-yl]methyl]bicyclo[1.1.1]pentane-1-carboxamide] and `COc1ccc(CNC(=O)C23CC(NC(=O)COc4ccc(Cl)c(F)c4)(C2)C3)cc1` [Compound 195, 3-[2-(4-chloro-3-fluorophenoxy)acetamido]-N-[(4-methoxyphenyl)methyl]bicyclo[1.1.1]pentane-1-carboxamide] cannot be ordered by pEC50: < 5.70 for the first, < 5.70 for the second.

`Cc1ccc(CNC(=O)C23CCC(NC(=O)COc4ccc(Cl)c(F)c4)(CC2)CC3O)cc1` (centres unmarked) [Compound 125, 4-[2-(4-chloro-3-fluorophenoxy)acetamido]-2-hydroxy-N-[(4-methylphenyl)methyl]bicyclo[2.2.2]octane-1-carboxamide] and `O=C(COc1ccc(Cl)c(F)c1)NC12CCC(C(=O)NCc3ccc(F)cc3)(CC1)C(O)C2` (centres unmarked) [Compound 130, 4-[2-(4-chloro-3-fluorophenoxy)acetamido]-N-[(4-fluorophenyl)methyl]-2-hydroxybicyclo[2.2.2]octane-1-carboxamide] cannot be ordered by pEC50: > 6.60 for the first, > 6.60 for the second.

First: Cc1ccc(OCCNC(=O)C23CC(NC(=O)COc4ccc(Cl)cc4)(C2)C3)cc1 [Compound 105, 3-[2-(4-chlorophenoxy)acetamido]-N-[2-(4-methylphenoxy)ethyl]bicyclo-[1.1.1]pentane-1-carboxamide]
Second: O=C(COc1ccc(Cl)c(F)c1)NC12CC(C(=O)NCc3ccc(OC(F)(F)F)cc3)(C1)C2 [Compound 225, 3-[2-(4-chloro-3-fluorophenoxy)acetamido]-N-{[4-(trifluoromethoxy)phenyl]methyl}bicyclo[1.1.1]pentane-1-carboxamide]
The pEC50 of the first is higher: 6.00 to 6.30 for the first, < 5.70 for the second. The first is the more potent here.

`Cn1cnc(CNC(=O)C23CC(NC(=O)COc4ccc(Cl)c(F)c4)(C2)C3)c1` [Compound 196, 3-[2-(4-chloro-3-fluorophenoxy)acetamido]-N-[(1-methyl-1H-imidazol-4-yl)methyl]bicyclo[1.1.1]pentane-1-carboxamide] and `Cc1nn(C)cc1CNC(=O)C12CC(NC(=O)COc3ccc(Cl)c(F)c3)(C1)C2` [Compound 152, 3-[2-(4-chloro-3-fluorophenoxy)acetamido]-N-[(1,3-dimethyl-1H-pyrazol-4-yl)methyl]bicyclo[1.1.1]pentane-1-carboxamide] cannot be ordered by pEC50: < 5.70 for the first, < 5.70 for the second.

First: COc1cccc(CNC(=O)C23CCC(NC(=O)COc4ccc(Cl)c(F)c4)(CC2)CC3O)c1 (centres unmarked) [Compound 127, 4-[2-(4-chloro-3-fluorophenoxy)acetamido]-2-hydroxy-N-[(3-methoxyphenyl)methyl]bicyclo[2.2.2]octane-1-carboxamide]
Second: Cn1ccc(CNC(=O)C23CCC(NC(=O)COc4ccc(Cl)c(F)c4)(CC2)CC3O)n1 (centres unmarked) [Compound 116, 4-[2-(4-chloro-3-fluorophenoxy)acetamido]-2-hydroxy-N-[(1-methyl-1H-pyrazol-3-yl)methyl]bicyclo[2.2.2]octane-1-carboxamide]
The pEC50 of the first is higher: 5.70 to 6.00 for the first, < 5.70 for the second. The first is the more potent here.

`Cc1cc(CNC(=O)C23CC(NC(=O)COc4ccc(Cl)c(F)c4)(C2)C3)n(C)n1` [Compound 151, 3-[2-(4-chloro-3-fluorophenoxy)acetamido]-N-[(1,3-dimethyl-1H-pyrazol-5-yl)methyl]bicyclo[1.1.1]pentane-1-carboxamide] and `Cn1nccc1CNC(=O)C12CC(NC(=O)COc3ccc(Cl)c(F)c3)(C1)C2` [Compound 184, 3-[2-(4-chloro-3-fluorophenoxy)acetamido]-N-[(1-methyl-1H-pyrazol-5-yl)methyl]bicyclo[1.1.1]pentane-1-carboxamide] cannot be ordered by pEC50: < 5.70 for the first, < 5.70 for the second.

`O=C(COc1ccc(Cl)c(F)c1)NC12CC(C(=O)NCc3ccc(F)c(F)c3)(C1)C2` [Compound 185, 3-[2-(4-chloro-3-fluorophenoxy)acetamido]-N-[(3,4-difluorophenyl)methyl]bicyclo[1.1.1]pentane-1-carboxamide] and `COc1ccc(CNC(=O)C23CC(NC(=O)COc4ccc(Cl)c(F)c4)(C2)C3)cc1F` [Compound 173, 3-[2-(4-chloro-3-fluorophenoxy)acetamido]-N-[(3-fluoro-4-methoxyphenyl)methyl]bicyclo[1.1.1]pentane-1-carboxamide] cannot be ordered by pEC50: < 5.70 for the first, < 5.70 for the second.

`CC(C)(C)c1ccc(CNC(=O)C23CC(NC(=O)COc4ccc(Cl)c(F)c4)(C2)C3)cc1` [Compound 167, N-[(4-tert-butylphenyl)methyl]-3-[2-(4-chloro-3-fluorophenoxy)acetamido]bicyclo[1.1.1]pentane-1-carboxamide] and `O=C(COc1ccc(Cl)c(F)c1)NC12CC(C(=O)NCc3ccncc3)(C1)C2` [Compound 233, 3-[2-(4-chloro-3-fluorophenoxy)acetamido]-N-[(pyridin-4-yl]methyl]bicyclo[1.1.1]pentane-1-carboxamide] cannot be ordered by pEC50: < 5.70 for the first, < 5.70 for the second.

Compared with `O=C(COc1ccc(Cl)c(F)c1)NC12CC(C(=O)NCc3ccc(C(F)(F)F)cn3)(C1)C2` [Compound 118, 3-[2-(4-chloro-3-fluorophenoxy)acetamido]-N-{[5-(trifluoromethyl)pyridin-2-yl]methyl}bicyclo[1.1.1]pentane-1-carboxamide], `O=C(COc1ccc(Cl)c(F)c1)NC12CC(C(=O)NCc3ccon3)(C1)C2` [Compound 235, 3-[2-(4-chloro-3-fluorophenoxy)acetamido]-N-[(1,2-oxazol-3-yl]methyl]bicyclo[1.1.1]pentane-1-carboxamide] is lower in pEC50: > 6.60 for the first, < 5.70 for the second. The first is the more potent here.

`COc1ccc(CNC(=O)C23CC(NC(=O)COc4ccc(Cl)c(F)c4)(C2)C3)cc1Cl` [Compound 249, 3-[2-(4-chloro-3-fluorophenoxy)acetamido]-N-[(3-chloro-4-methoxyphenyl)methyl]bicyclo[1.1.1]pentane-1-carboxamide] and `O=C(COc1ccc(Cl)c(F)c1)NC12CC(C(=O)NCc3ccc(Cl)c(Cl)c3)(C1)C2` [Compound 241, 3-[2-(4-chloro-3-fluorophenoxy)acetamido]-N-[(3,4-dichlorophenyl]methyl]bicyclo[1.1.1]pentane-1-carboxamide] cannot be ordered by pEC50: < 5.70 for the first, < 5.70 for the second.

`O=C(COc1ccc(Cl)c(F)c1)NC12CC(C(=O)NCc3c(Cl)cccc3Cl)(C1)C2` [Compound 163, 3-[2-(4-chloro-3-fluorophenoxy)acetamido]-N-[(2,6-dichlorophenyl)methyl]bicyclo[1.1.1]pentane-1-carboxamide] and `Cc1ccsc1CNC(=O)C12CC(NC(=O)COc3ccc(Cl)c(F)c3)(C1)C2` [Compound 192, 3-[2-(4-chloro-3-fluorophenoxy)acetamido]-N-[(3-methylthiophen-2-yl)methyl]bicyclo[1.1.1]pentane-1-carboxamide] cannot be ordered by pEC50: < 5.70 for the first, < 5.70 for the second.

`Cc1ccncc1CNC(=O)C12CC(NC(=O)COc3ccc(Cl)c(F)c3)(C1)C2` [Compound 165, 3-[2-(4-chloro-3-fluorophenoxy)acetamido]-N-[(4-methylpyridin-3-yl)methyl]bicyclo[1.1.1]pentane-1-carboxamide] and `Cc1cnc(CNC(=O)C23CC(NC(=O)COc4ccc(Cl)c(F)c4)(C2)C3)s1` [Compound 178, 3-[2-(4-chloro-3-fluorophenoxy)acetamido]-N-[(5-methyl-1,3-thiazol-2-yl)methyl]bicyclo[1.1.1]pentane-1-carboxamide] cannot be ordered by pEC50: < 5.70 for the first, < 5.70 for the second.

First: CCOc1ccccc1CNC(=O)C12CC(NC(=O)COc3ccc(Cl)c(F)c3)(C1)C2 [Compound 182, 3-[2-(4-chloro-3-fluorophenoxy)acetamido]-N-[(2-ethoxyphenyl)methyl]bicyclo[1.1.1]pentane-1-carboxamide]
Second: CC(C)c1cc(CNC(=O)C23CCC(NC(=O)COc4ccc(Cl)c(F)c4)(CC2)CC3O)on1 (centres unmarked) [Compound 109, 4-[2-(4-chloro-3-fluorophenoxy)acetamido]-2-hydroxy-N-{[3-(propan-2-yl)-1,2-oxazol-5-yl]methyl}bicyclo[2.2.2]octane-1-carboxamide]
The pEC50 of the first is lower: < 5.70 for the first, 6.00 to 6.30 for the second. The second is the more potent here.
